The source of these data is US12441695B2, “Substituted thiadiazinone dioxide and preparation method therefor, herbicidal composition, and application therefor” (Qingdao Kingagroot Chemical Compound Co., Ltd., priority 2019, dated 2025).

Data set [1] deals with monocotyledonous and dicotyledonous weeds. Description: Experiment on weeding effect in post-emergence stage (weeds). The data set is classed as in vivo. The conditions noted are these: 600 g/ha active ingredient plus water 450 kg/ha, 3 weeks after application, fresh weight control rate; for Amaranthus retroflexus activity level (growth control rate): fomesafen-resistant Amaranthus retroflexus. The method in brief: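 Greenhouse pot-grown weeds and crops sprayed post-emergence 2–3 weeks after sowing with compound in acetone/Tween 80/water. Fresh-weight growth control scored after 3 weeks on a 0–5 scale (5: >85%, 0: <5%).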

For data set [2], the system named is major crops (wheat, corn, rice, soybean, cotton, oilseed rape, millet, sorghum). The experiment in a line: Experiment on weeding effect in post-emergence stage (crops). The data set is classed as in vivo. The note with it: 600 g/ha active ingredient plus water 450 kg/ha, 3 weeks after application; for corn plant damage level (growth control rate): crop corn; for rice plant damage level (growth control rate): crop rice; for soybean plant damage level (growth control rate): crop soybean. The method in brief:
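Weed and crop seeds were sown in soil-filled pots, covered with 0.5–2 cm soil and grown in a greenhouse. Plants were sprayed 2–3 weeks after sowing using a spray tower, with compound dissolved in acetone plus Tween 80 and diluted in water. Effect was expressed as fresh-weight growth control rate.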

The next data set has as its system gramineous weeds. The note with it: in vivo; cited from earlier work.

`CCCOC(=O)N1c2c(F)cc(F)cc2C(=O)N(C(C)C)S1(=O)=O` [Compound 218]: in data set [1], the “Amaranthus retroflexus activity level (growth control rate)” value (“Amaranthus retroflexus activity level” below) is 5 (Level 5: growth control rate is above 85%); the “Echinochloa crus-galli activity level (growth control rate)” value (“Echinochloa crus-galli activity level” below) was 4 (Level 4: growth control rate is greater than or equal to 60% and less than 85%); the “Setaria viridis activity level (growth control rate)” value (from here on “Setaria viridis activity level”) is on record as 5 (Level 5: growth control rate is above 85%). In data set [2], the “corn plant damage level (growth control rate)” value (“corn plant damage level” below) is given as 0 (Level 0: growth control rate is less than 5%); the “rice plant damage level (growth control rate)” value (from here on “rice plant damage level”) is 1 (Level 1: growth control rate is greater than or equal to 500 and less than 200%).

On to `CC(C)OC(=O)N1c2c(F)cc(F)cc2C(=O)N(C(C)C)S1(=O)=O` [Compound 219], for which, in data set [1], the “Amaranthus retroflexus activity level” value is reported as 5 (Level 5: growth control rate is above 85%); the “Digitaria sanguinalis activity level (growth control rate)” value (“Digitaria sanguinalis activity level” below) was 3 (Level 3: growth control rate is greater than or equal to 40% and less than 60%); the “Echinochloa crus-galli activity level” value is listed as 5 (Level 5: growth control rate is above 85%); the “Setaria viridis activity level” value is reported as 5 (Level 5: growth control rate is above 85%). Also, the “corn plant damage level” value in data set [2] was 1 (Level 1: growth control rate is greater than or equal to 500 and less than 200%).

On to `CCCCOC(=O)N1c2c(F)cc(F)cc2C(=O)N(C(C)C)S1(=O)=O` [Compound 220], for which, in data set [1], the “Amaranthus retroflexus activity level” value was 4 (Level 4: growth control rate is greater than or equal to 60% and less than 85%); the “Digitaria sanguinalis activity level” value was 3 (Level 3: growth control rate is greater than or equal to 40% and less than 60%); the “Echinochloa crus-galli activity level” value is 5 (Level 5: growth control rate is above 85%); the “Setaria viridis activity level” value was 5 (Level 5: growth control rate is above 85%). Also, the “corn plant damage level” value in data set [2] is 1 (Level 1: growth control rate is greater than or equal to 500 and less than 200%).

As to `CCCCCCCCSC(=O)N1c2c(F)cc(F)cc2C(=O)N(C(C)C)S1(=O)=O` [Compound 222], in data set [1], the “Amaranthus retroflexus activity level” value is given as 5 (Level 5: growth control rate is above 85%). In data set [2], the “corn plant damage level” value is given as 0 (Level 0: growth control rate is less than 5%) and the “rice plant damage level” value is listed as 0 (Level 0: growth control rate is less than 5%).

In the case of `CC(C)N1C(=O)c2cc(F)cc(F)c2N(C(=O)N(C)C)S1(=O)=O` [Compound 223], in data set [1], the “Amaranthus retroflexus activity level” value is on record as 5 (Level 5: growth control rate is above 85%); the “Digitaria sanguinalis activity level” value is reported as 5 (Level 5: growth control rate is above 85%); the “Echinochloa crus-galli activity level” value is 3 (Level 3: growth control rate is greater than or equal to 40% and less than 60%); the “Setaria viridis activity level” value is recorded as 5 (Level 5: growth control rate is above 85%). Besides, in data set [2], the “corn plant damage level” value is on record as 0 (Level 0: growth control rate is less than 5%) and the “rice plant damage level” value was 0 (Level 0: growth control rate is less than 5%).

Turning to `CCCS(=O)(=O)N1c2c(F)cc(F)cc2C(=O)N(C(C)C)S1(=O)=O` [Compound 229], the “Amaranthus retroflexus activity level” value in data set [1] was 3 (Level 3: growth control rate is greater than or equal to 40% and less than 60%). The “corn plant damage level” value in data set [2] is 1 (Level 1: growth control rate is greater than or equal to 500 and less than 200%).

For the molecule `CC(C)N1C(=O)c2cccc(F)c2NS1(=O)=O` [D, reference compound], in data set [1], the “Amaranthus retroflexus activity level” value was 2 (Level 2: growth control rate is greater than or equal to 20% and less than 40%); the “Digitaria sanguinalis activity level” value was 1 (Level 1: growth control rate is greater than or equal to 500 and less than 200%); the “Echinochloa crus-galli activity level” value is 1 (Level 1: growth control rate is greater than or equal to 500 and less than 200%); the “Setaria viridis activity level” value is 2 (Level 2: growth control rate is greater than or equal to 20% and less than 40%). Besides, in data set [2], the “corn plant damage level” value is listed as 0 (Level 0: growth control rate is less than 5%); the “rice plant damage level” value is reported as 0 (Level 0: growth control rate is less than 5%); the “soybean plant damage level (growth control rate)” value (“soybean plant damage level” below) was 1 (Level 1: growth control rate is greater than or equal to 500 and less than 200%).

For `O=C1c2c(cc(F)c(F)c2F)NS(=O)(=O)N1CCl` [E, reference compound], in data set [1], the “Amaranthus retroflexus activity level” value is 2 (Level 2: growth control rate is greater than or equal to 20% and less than 40%); the “Digitaria sanguinalis activity level” value is 1 (Level 1: growth control rate is greater than or equal to 500 and less than 200%); the “Echinochloa crus-galli activity level” value was 1 (Level 1: growth control rate is greater than or equal to 500 and less than 200%); the “Setaria viridis activity level” value was 2 (Level 2: growth control rate is greater than or equal to 20% and less than 40%). For the same molecule, in data set [2], the “corn plant damage level” value was 1 (Level 1: growth control rate is greater than or equal to 500 and less than 200%); the “rice plant damage level” value is 1 (Level 1: growth control rate is greater than or equal to 500 and less than 200%); the “soybean plant damage level” value is 1 (Level 1: growth control rate is greater than or equal to 500 and less than 200%).

For `CC(C)N1C(=O)c2cccnc2NS1(=O)=O` [F, reference compound], in data set [1], the “Amaranthus retroflexus activity level” value was 2 (Level 2: growth control rate is greater than or equal to 20% and less than 40%); the “Digitaria sanguinalis activity level” value was 2 (Level 2: growth control rate is greater than or equal to 20% and less than 40%); the “Echinochloa crus-galli activity level” value is 2 (Level 2: growth control rate is greater than or equal to 20% and less than 40%); the “Setaria viridis activity level” value is 2 (Level 2: growth control rate is greater than or equal to 20% and less than 40%). Also, in data set [2], the “corn plant damage level” value is 1 (Level 1: growth control rate is greater than or equal to 500 and less than 200%); the “rice plant damage level” value is 1 (Level 1: growth control rate is greater than or equal to 500 and less than 200%); the “soybean plant damage level” value was 1 (Level 1: growth control rate is greater than or equal to 500 and less than 200%).

As to `CC(C)N1C(=O)c2ccccc2NS1(=O)=O` [G, reference compound], in data set [1], the “Amaranthus retroflexus activity level” value is 1 (Level 1: growth control rate is greater than or equal to 500 and less than 200%); the “Digitaria sanguinalis activity level” value is 0 (Level 0: growth control rate is less than 5%); the “Echinochloa crus-galli activity level” value is given as 0 (Level 0: growth control rate is less than 5%); the “Setaria viridis activity level” value was 1 (Level 1: growth control rate is greater than or equal to 500 and less than 200%). In data set [2], the “corn plant damage level” value is recorded as 0 (Level 0: growth control rate is less than 5%); the “rice plant damage level” value was 1 (Level 1: growth control rate is greater than or equal to 500 and less than 200%); the “soybean plant damage level” value is 1 (Level 1: growth control rate is greater than or equal to 500 and less than 200%).

Turning to `CC(C)N1C(=O)c2ccccc2NS1(=O)=O` [bentazone], the “effect on gramineous weeds” value with gramineous weeds was “ineffective”.
